Results as given in patent publication US10028996B2, “Process for the synchronization of ovulation for timed breeding without heat detection” (priority 2003, dated 2018).

Legend:
Type in all cases: in vivo, swine
postpartum sows [1] = experiment: Single timed deslorelin injection 96 hours post-weaning, single timed insemination without estrus detection; conditions: 50 mcg in SAIB 96 hours post-weaning, no estrus detection
Description: Approximately 170 postpartum sows were randomly divided into two equal groups comprised of controls and treated. Following weaning, the controls were detected for estrus and bred following the normal standard operating procedures for the farms on which they resided. The treated sows received a 50 mcg dose of deslorelin in SAIB at 96 hours post-weaning and were bred with a single insemination 28+/−2 hours later with no regard to estrus detection. The sows were examined for pregnancy by ultrasound at 21 days and slaughtered around 28 days post breeding. The entire reproductive tract was removed and corpora lutea and embryos were counted.

mature postpartum sows = experiment: Deslorelin injected intravulvar at estrus detection in mature postpartum sows, AI breeding; conditions: 50 mcg intravulvar at estrus detection
Description: Sows were assigned randomly in blocks of two to either control or to be injected intravulvar with 50 mcg of deslorelin in SAIB at the time of estrus detection for sows first detected in estrus in the a.m. and 12 hours later for those first detected in estrus in the p.m. Treated animals were bred AI upon detected estrus and again 24 hours later if still in estrus. Controls received a saline injection on first detected estrus behavior estrus detection and were bred according to the farm's normal procedures.

[2] = test system: ovariectomized estrogen primed gilt model; experiment: Dose response study of deslorelin in SAIB, LH release determined by RIA; conditions: single injection of 50 mcg in SAIB
Description: A dose response study was performed using deslorelin in SAIB in an ovariectomized estrogen primed gilt model (Barb, et al. (1999) Proceed. Int'l. Symp. Control. Rel. Bioact. Mater., 26).

postpartum sows [3] = experiment: Litter size after deslorelin treatment in postpartum sows at three farm sites; conditions: Tables 3 to 5; regardless of estrus detection
Source text: Postpartum sows were randomly distributed into three different groups comprised of Controls, Treatment 1, and Treatment 2, with the exception of Site 3, which was divided into two groups, Control and Treatment 2. Control sows were detected for estrus following weaning, and bred following the normal standard operating procedures for the farms on which they resided. Treatment 1 sows were detected for estrus following weaning, and received a 50 mcg dose of deslorelin in the morning when standing and were bred by AI 4 hours later and again at 24+/−2 hours later. Treatment 2 sows received a 50 mcg dose of deslorelin in SAIB at 96 or 120 hours post-weaning and were bred with a single insemination 28+/−2 hours later with no regard to estrus detection.

In the case of CCNC(=O)[C@@H]1CCCN1C(=O)[C@H](CCCN=C(N)N)NC(=O)[C@H](CC(C)C)NC(=O)[C@@H](Cc1c[nH]c2ccccc12)NC(=O)[C@H](Cc1ccc(O)cc1)NC(=O)[C@H](CO)NC(=O)[C@H](Cc1c[nH]c2ccccc12)NC(=O)[C@H](Cc1cnc[nH]1)NC(=O)[C@@H]1CCC(=O)N1 [Deslorelin, deslorelin], the “Pregnancy Rate” value (postpartum sows [1]) is reported as 71%, the “difference in pregnancy rates, Control versus Treated” value (mature postpartum sows) is reported as “no significant difference” and the “time at which LH returned to base level” value [2] is reported as ≤ 18 h. The “LH peak relative to normal value” ([2]; compared to Hansel et al. (1973)) was “about twice normal value” and the “litter sizes, in words” value (postpartum sows [3]) was “normal litter sizes”.
